Results: patent US10287275B2, “16-member triamilide derivatives and uses thereof” (VICTOR PHARMA CO., LTD. ZHENJIANG, priority 2015, dated 2019)
Converted amounts (≈) assume the structure as drawn.

Legend:
Format in all cases: cell-based
[1] = tested on: Actinobacillus pleuropneumoniae serotype 1; assay: Antibacterial MIC, agar-dilution or broth-dilution microtiter test; conditions: Strain A: Actinobacillus pleuropneumoniae serotype 1
Experimental: (§1) The MIC's in Table I and Table II were determined by standard agar-dilution assays or broth-dilution microtiter test.

[2] = tested on: Actinobacillus pleuropneumoniae serotype 7; assay: as above; conditions: Strain B: Actinobacillus pleuropneumoniae serotype 7
Experimental: as §1

[3] = tested on: Escherichia coli 25922 (QC strain); assay: as above; conditions: Strain F: Escherichia coli 25922 (QC strain)
Experimental: as §1

Escherichia coli IN-F6-7 = assay: as above; conditions: INF67; Strain E: Escherichia coli IN-F6-7
Experimental: as §1

[4] = tested on: Klebsiella pneumoniae 3699; assay: as above; conditions: Strain K: Klebsiella pneumoniae 3699
Experimental: as §1

[5] = tested on: Klebsiella pneumoniae 3753; assay: as above; conditions: Strain J: Klebsiella pneumoniae 3753
Experimental: as §1

Pasteurella 8217 = assay: as above; conditions: Strain C: Pasteurella 8217
Experimental: as §1

Pasteurella 8229 = assay: as above; conditions: Strain D: Pasteurella 8229
Experimental: as §1

[6] = tested on: Staphylococcus aureus 29213 (QC strain); assay: as above; conditions: Strain H: Staphylococcus aureus 29213 (QC strain)
Experimental: as §1

[7] = tested on: Staphylococcus aureus 5-1; assay: as above; conditions: 51; Strain G: Staphylococcus aureus 5-1
Experimental: as §1

[8] = tested on: Streptococcus pneumoniae 2349; assay: as above; conditions: Strain L: Streptococcus pneumoniae 2349
Experimental: as §1

[9] = tested on: Streptococcus pneumoniae 49619 (QC strain); assay: as above; conditions: Strain M: Streptococcus pneumoniae 49619 (QC strain)
Experimental: as §1

salmonella LD4-8 = assay: as above; conditions: LD48; Strain I: salmonella LD4-8
Experimental: as §1

M. gallisepticum BG44T = assay: Mycoplasma susceptibility testing (MIC); conditions: Mycoplasmoides gallisepticum
Experimental: as §1

M. gallisepticum S6 = assay: Mycoplasma susceptibility testing (MIC); conditions: Mycoplasmoides gallisepticum
Experimental: as §1

M. hyorinis BTS-7 = assay: Mycoplasma susceptibility testing (MIC)
Experimental: as §1

| Structure (SMILES) | MIC [1] [µg/mL] | MIC [2] [µg/mL] | MIC [3] [µg/mL] | MIC (Escherichia coli IN-F6-7) [µg/mL] | MIC [4] [µg/mL] | MIC [5] [µg/mL] | MIC (Pasteurella 8217) [µg/mL] | MIC (Pasteurella 8229) [µg/mL] | MIC [6] [µg/mL] | MIC [7] [µg/mL] | MIC [8] [µg/mL] | MIC [9] [µg/mL] | MIC (salmonella LD4-8) [µg/mL] | MIC (M. gallisepticum BG44T) [µg/mL] | MIC (M. gallisepticum S6) [µg/mL] | MIC (M. hyorinis BTS-7) [µg/mL] |
| --- | --- | --- | --- | --- | --- | --- | --- | --- | --- | --- | --- | --- | --- | --- | --- | --- |
| CC[C@H]1OC(=O)C[C@@H](O)[C@H](C)[C@@H](O[C@@H]2O[C@H](C)[C@@H](O[C@H]3C[C@@](C)(O)[C@@H](O)[C@H](C)O3)[C@H](N(C)C)[C@H]2O)[C@@H](CC=O)C[C@@H](C)C(=O)/C=C/C(C)=C/[C@@H]1CO[C@@H]1O[C@H](C)[C@@H](O)[C@@H](OC)[C@H]1OC [Tylosin, reference compound] | 16 (≈ 17.5 µM) | 8 (≈ 8.73 µM) | 256 (≈ 279 µM) | 256 (≈ 279 µM) | > 256 | > 256 | 32 (≈ 34.9 µM) | 32 (≈ 34.9 µM) | 2 (≈ 2.18 µM) | > 256 | < 0.12 | 2 (≈ 2.18 µM) | > 256 | < 0.12 | < 0.12 | 1.95 (≈ 2.13 µM) |
| CCCCNC[C@H]1/C=C(C)/C=C/C(=O)[C@H](C)C[C@H](CCN2CCCCC2)[C@H](O[C@@H]2O[C@H](C)[C@@H](O)[C@H](N(C)C)[C@H]2O)[C@@H](C)[C@H](O)CC(=O)O[C@@H]1CC [Compound 4c, (4R,5S,6S,7R,9R,11E,13E,15R,16R)-15-((butylamino)methyl)-6-(((2R,3R,4S,5S,6R)-4-(dimethylamino)-3,5-dihydroxy-6-methyltetrahydro-2H-pyran-2-yl)oxy)-16-ethyl-4-hydroxy-5,9,13-trimethyl-7-(2-(piperidin-1-yl)ethyl)oxacyclohexadeca-11,13-diene-2,10-dione] | 64 (≈ 88.6 µM) | 128 (≈ 177 µM) | 16 (≈ 22.2 µM) | 16 (≈ 22.2 µM) | > 256 | 128 (≈ 177 µM) | 4 (≈ 5.54 µM) | 4 (≈ 5.54 µM) | 64 (≈ 88.6 µM) | > 256 | 2 (≈ 2.77 µM) | 256 (≈ 355 µM) | 32 (≈ 44.3 µM) | 7.82 (≈ 10.8 µM) | 15.6 (≈ 21.6 µM) | 31.2 (≈ 43.3 µM) |
| CCCN(CCC)C[C@H]1/C=C(C)/C=C/C(=O)[C@H](C)C[C@H](CCN2CCCCC2)[C@H](O[C@@H]2O[C@H](C)[C@@H](O)[C@H](N(C)C)[C@H]2O)[C@@H](C)[C@H](O)CC(=O)O[C@@H]1CC [Compound 4b, (4R,5S,6S,7R,9R,11E,13E,15R,16R)-6-(((2R,3R,4S,5S,6R)-4-(dimethylamino)-3,5-dihydroxy-6-methyltetrahydro-2H-pyran-2-yl)oxy)-15-((dipropylamino)methyl)-16-ethyl-4-hydroxy-5,9,13-trimethyl-7-(2-(piperidin-1-yl)ethyl)oxacyclohexadeca-11,13-diene-2,10-dione] | 32 (≈ 42.7 µM) | 32 (≈ 42.7 µM) | 4 (≈ 5.33 µM) | 8 (≈ 10.7 µM) | > 256 | 32 (≈ 42.7 µM) | 1 (≈ 1.33 µM) | 0.25 (≈ 0.333 µM) | 16 (≈ 21.3 µM) | > 256 | 1 (≈ 1.33 µM) | 16 (≈ 21.3 µM) | 8 (≈ 10.7 µM) | < 0.12 | 0.49 (≈ 0.653 µM) | 15.6 (≈ 20.8 µM) |
| CC[C@H]1OC(=O)C[C@@H](O)[C@H](C)[C@@H](O[C@@H]2O[C@H](C)[C@@H](O)[C@H](N(C)C)[C@H]2O)[C@@H](CCN2C[C@H](C)C[C@H](C)C2)C[C@@H](C)C(=O)/C=C/C(C)=C/[C@@H]1CO[C@@H]1O[C@H](C)[C@@H](O)[C@@H](OC)[C@H]1OC [Tilmicosin, reference compound] | 32 (≈ 36.8 µM) | 32 (≈ 36.8 µM) | 8 (≈ 9.2 µM) | 16 (≈ 18.4 µM) | > 256 | 64 (≈ 73.6 µM) | 8 (≈ 9.2 µM) | 0.5 (≈ 0.575 µM) | 0.5 (≈ 0.575 µM) | > 256 | 0.5 (≈ 0.575 µM) | 8 (≈ 9.2 µM) | 32 (≈ 36.8 µM) | < 0.12 | < 0.12 | 3.91 (≈ 4.5 µM) |
| CC[C@H]1OC(=O)C[C@@H](O)[C@H](C)[C@@H](O[C@@H]2O[C@H](C)[C@@H](O)[C@H](N(C)C)[C@H]2O)[C@@H](CCN2CCCCC2)C[C@@H](C)C(=O)/C=C/C(C)=C/[C@@H]1CNC1CCCCC1 [Compound 4h, (4R,5S,6S,7R,9R,11E,13E,15R,16R)-15-((cyclohexylamino)methyl)-6-(((2R,3R,4S,5S,6R)-4-(dimethylamino)-3,5-dihydroxy-6-methyltetrahydro-2H-pyran-2-yl)oxy)-16-ethyl-4-hydroxy-5,9,13-trimethyl-7-(2-(piperidin-1-yl)ethyl)oxacyclohexadeca-11,13-diene-2,10-dione] | 64 (≈ 85.6 µM) | 64 (≈ 85.6 µM) | 16 (≈ 21.4 µM) | 16 (≈ 21.4 µM) | > 256 | 128 (≈ 171 µM) | 16 (≈ 21.4 µM) | 2 (≈ 2.67 µM) | 64 (≈ 85.6 µM) | 256 (≈ 342 µM) | 2 (≈ 2.67 µM) | 32 (≈ 42.8 µM) | 32 (≈ 42.8 µM) | – | – | – |
| CC[C@H]1OC(=O)C[C@@H](O)[C@H](C)[C@@H](O[C@@H]2O[C@H](C)[C@@H](O)[C@H](N(C)C)[C@H]2O)[C@@H](CCN2CCCCC2)C[C@@H](C)C(=O)/C=C/C(C)=C/[C@@H]1CN1CCCCC1 [Zuprevo, reference compound] | 64 (≈ 87.2 µM) | 64 (≈ 87.2 µM) | 4 (≈ 5.45 µM) | 4 (≈ 5.45 µM) | > 256 | 32 (≈ 43.6 µM) | 1 (≈ 1.36 µM) | 1 (≈ 1.36 µM) | 256 (≈ 349 µM) | > 256 | 0.5 (≈ 0.681 µM) | 256 (≈ 349 µM) | 8 (≈ 10.9 µM) | < 0.12 | < 0.12 | 1.95 (≈ 2.66 µM) |
| CC[C@H]1OC(=O)C[C@@H](O)[C@H](C)[C@@H](O[C@@H]2O[C@H](C)[C@@H](O)[C@H](N(C)C)[C@H]2O)[C@@H](CCN2CCCCC2)C[C@@H](C)C(=O)/C=C/C(C)=C/[C@@H]1CNCc1ccccc1 [Compound 4e, (4R,5S,6S,7R,9R,11E,13E,15R,16R)-15-((benzylamino)methyl)-6-(((2R,3R,4S,5S,6R)-4-(dimethylamino)-3,5-dihydroxy-6-methyltetrahydro-2H-pyran-2-yl)oxy)-16-ethyl-4-hydroxy-5,9,13-trimethyl-7-(2-(piperidin-1-yl)ethyl)oxacyclohexadeca-11,13-diene-2,10-dione] | 256 (≈ 339 µM) | 256 (≈ 339 µM) | 256 (≈ 339 µM) | 256 (≈ 339 µM) | > 256 | > 256 | 32 (≈ 42.3 µM) | 16 (≈ 21.2 µM) | 64 (≈ 84.7 µM) | 256 (≈ 339 µM) | 64 (≈ 84.7 µM) | 256 (≈ 339 µM) | > 256 | – | – | – |
| CC[C@H]1OC(=O)C[C@@H](O)[C@H](C)[C@@H](O[C@@H]2O[C@H](C)[C@@H](O)[C@H](N(C)C)[C@H]2O)[C@@H](CCN2CCCCC2)C[C@@H](C)C(=O)/C=C/C(C)=C/[C@@H]1CN(CCO)CCO [Compound 4g, (4R,5S,6S,7R,9R,11E,13E,15R,16R)-15-((bis(2-hydroxyethyl)amino)methyl)-6-(((2R,3R,4S,5S,6R)-4-(dimethylamino)-3,5-dihydroxy-6-methyltetrahydro-2H-pyran-2-yl)oxy)-16-ethyl-4-hydroxy-5,9,13-trimethyl-7-(2-(piperidin-1-yl)ethyl)oxacyclohexadeca-11,13-diene-2,10-dione] | 256 (≈ 340 µM) | 256 (≈ 340 µM) | 256 (≈ 340 µM) | 256 (≈ 340 µM) | > 256 | > 256 | < 0.12 | 32 (≈ 42.4 µM) | 128 (≈ 170 µM) | > 256 | 32 (≈ 42.4 µM) | > 256 | 128 (≈ 170 µM) | – | – | – |
